The values below come from patent US4914096A, “6-aryl-substituted-4H-thieno(2,3-e)(1,2,4)triazolo(3,4-c)(1,4)diazepines” (priority 1989, dated 1990).

Like-named read-outs stand apart in the source and are kept apart here.

Assay [1] deals with PAF-induced hypotension. To be noted: rat; for decrease in blood pressure: within 10 sec. As for the experimental part: Male Wistar rats, weighing approximately 300 gm, are anesthetized and their carotid arteries cannulated to enable their diastolic and systolic arterial blood pressure measurements to be recorded. PAF is then administered intravenously at either 100 or 500 ng/kg, and the blood pressure drop (within 10 sec.) and recovery time required to reach the pre-injection blood pressure level are measured. […] In order to measure the effectiveness of a compound for both the inhibition of blood pressure decreases and shortening of the recovery time, the test compound is administered intravenously over a range of between 5 and 7 dosage levels (1 or 2 test animals per dose) and between 1 and 5 minutes prior to the introduction of PAF to generate an ED50.

Assay [2] deals with PAF-induced human platelet aggregation. Put plainly: Platelet Aggregation Inhibition Assay test (PAIA test). In kind it is cell-based. The settings on record: C-16 PAF 0.1 μM or 0.01 μM; human platelet rich plasma. As for the experimental part: All of the compounds of formula I, as well as their pharmaceutically acceptable acid addition salts, are useful as platelet activating factor inhibitors as indicated by their ability to inhibit platelet activating factor (PAF)-induced human platelet aggregation in vitro according to the Platelet Aggregation Inhibition Assay test (PAIA test) as follows:
Human subjects are kept aspirin free for one week and fasted overnight. Platelet rich plasma (PRP) is prepared by centrifugation (200×g.) of freshly drawn blood, anti-coagulated within 0.38% sodium citrate (final concentration). Platelet count is adjusted to 250,000 per μl using platelet poor plasma (PPP) obtained by a second centrifugation (700×g.) of the blood sample. An aliquot (0.38 ml) of the PRP is dispensed into cuvettes and maintained at room temperature (22° C.) until used (but for not more than two hours). […] The aggregation response is quantitated by determining the area under the curve (AUC). The AUC calculated for the inducing agent alone is considered to be one hundred percent. The potential percent inhibition of the aggregation response is determined by dividing the AUC generated in the presence of the compound by the AUC of the inducing agent alone, multiplying by 100 and then subtracting from 100.

The target in assay [3] is T1, Human Platelet PAF Receptor (Homo sapiens, UniProt P25105).
T1 construct: endogenous in cells; host or cells: washed platelets from the blood of healthy human donors
The assay can be described thus: Human Platelet PAF Receptor Assay test (Test A). The assay is classed as binding. As for the experimental part:
Human blood is obtained by venipuncture of healthy, human donors into an anti-coagulant mixture containing 3.15% of trisodium citrate and 20 μg/ml of Prostaglandin I2 (PGI2) in a ratio of blood to anti-coagulant of 9:1. Platelet rich plama (PRP) is prepared by centrifugation (250×g) of the blood for 20 minutes at room temperature. The PRP is then centrifuged (900×g) for 10 minutes at room temperature and the platelet pellet is washed two times with Tris-Tyrode's (TT) solution having a pH of 7.4 and containing 0.25% bovine serum albumin (BSA), and to which has been added PGI2 at a final concentration of […]. The platelets are resuspended at […] in TT/BSA containing 1.4 mM CaCl2.2H2 O and 0.7 mM MgCl2.6H2 O. All of the tests are conducted in duplicate and each of the test compounds is evaluated at concentrations of 100, 50, 1 and 0.1 μM. […]
Each mixture is allowed to incubate at room temperature for one hour, after which time the reaction is terminated by the addition of 500 μl of ice cold TT/BSA and centrifugation (900×g) at 4° C. for 10 minutes. […] An additional 2 ml. of Scintiverse II is then added to the vials and, after mixing, the vials are counted for 1 minute in a liquid scintillation spectrometer. The amount of specific binding is calculated as the difference in cpm between the total bound (^3 H)-PAF and non-specifically bound (^3 H)-PAF. […]

The test system of assay [4] is PAF-mediated bronchoconstriction. The assay can be described thus: PAF-induced Pulmonary Inflation Pressure (PIP) Increase test (Test B). The assay is classed as in vivo, guinea pigs. The settings on record: Cavia porcellus, po, read-out: Test B ED50. As for the experimental part:
Furthermore, in view of their usefulness as PAF receptor antagonists, the compounds of formula I have been found useful as inhibitors of PAF-mediated bronchoconstriction, which property was evaluated by the PAF-induced Pulmonary Inflation Pressure (PIP) Increase test (Test B) as follows:
Male guinea pigs, weighing between 300 and 400 gm, are anesthetized, after which time trachea tube, carotid and jugular catheters are inserted. The test animal is then force ventilated employing a small animal Harvard respirator and the resistance to lung inflation (PIP) is measured utilizing a pressure transducer and recorder. The test compound is administered orally at 30 minutes prior to, intravenously (jugular) at 5 minutes prior to, or intraarterially at 1 to 5 minutes prior to the introduction of PAF. […] Any blood pressure measurements taken are recorded from a transducer attached to the carotid catheter. […] A reading at 15 minutes after the administration of PAF is termed the endpoint PIP. The effect of the test compound on the PIP response is determined by the difference between the percent increase in maximal PIP over baseline for the test animal to which has been administered PAF and the test compound compared to the test animal to which only PAF has been administered to generate an ED 5 C (dose needed to effect a 50% response).

Assay [5] has as its system PAF-mediated extravasation. The assay can be described thus: PAF-induced Extravasation test (Test C). The settings on record: Cavia porcellus, po, read-out: Test C ED50. In kind it is in vivo, guinea pigs.

T1 sequence (P25105 whole entry): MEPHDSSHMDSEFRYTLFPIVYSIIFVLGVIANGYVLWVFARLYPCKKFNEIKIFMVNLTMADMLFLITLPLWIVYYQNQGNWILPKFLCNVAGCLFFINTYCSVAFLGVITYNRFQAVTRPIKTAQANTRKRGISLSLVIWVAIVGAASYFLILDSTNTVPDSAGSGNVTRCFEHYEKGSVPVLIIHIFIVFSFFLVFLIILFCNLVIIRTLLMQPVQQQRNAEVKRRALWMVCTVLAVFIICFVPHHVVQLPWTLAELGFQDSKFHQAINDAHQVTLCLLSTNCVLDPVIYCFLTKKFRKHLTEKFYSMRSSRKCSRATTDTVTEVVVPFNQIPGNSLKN

In the case of “1-O-alkyl-2-acetyl-sn-glyceryl-3-phosphoryl-choline [PAF]”, the results for the “decrease in blood pressure” value in assay [1] (100 ng/kg i.v.) and in assay [1] (500 ng/kg i.v.) were 30% and 52%, respectively. In assay [1] (500 ng/kg i.v., to pre-injection blood pressure level), this compound displayed a recovery time of 10 min.

On to `COc1cc(CCc2ccc(C3=NCc4nnc(C)n4-c4sccc43)cc2)cc(OC)c1OC` [Example 1, 1-methyl-6-[4-[2-(3,4,5-trimethoxyphenyl)ethyl]phenyl]-4H-thieno[2,3-e][1,2,4]triazolo[3,4-c][1,4]diazepine], for which the IC50 amounted to 12 µM in assay [2] and 0.22 µM in assay [3]. The 50% effective dose (ED50) in assay [4] is 0.8 mg/kg; in assay [5], 0.5 mg/kg.
